Here are results for 36 compounds from US20230226062A1, “HETEROCYCLIC COMPOUNDS AS IMMUNOMODULATORS” (Incyte Corporation, priority 2016, published 2023).

The target of the assay is T1, PD-1/PD-L1 (Homo sapiens, UniProt Q9NZQ7).
T1 construct: Recombinant human PD-L1 protein (19-238) with a His-tag at the C-terminus; purchased AcroBiosystems PD1-H5229 (PD-L1); PD1-H5257 (PD-1)
In words: PD-1/PD-L1 Homogeneous Time-Resolved Fluorescence (HTRF) binding assay. To be noted: recombinant human PD-L1 (19-238)-His 10 nM, human PD-1 (25-167)-Fc 3 nM, 25° C., PBS pH 7.4. Here is the method: Example A. PD-1/PD-L1 Homogeneous Time-Resolved Fluorescence (HTRF) Binding Assay
The assays were conducted in a standard black 384-well polystyrene plate with a final volume of 20 μL. Inhibitors were first serially diluted in DMSO and then added to the plate wells before the addition of other reaction components. The final concentration of DMSO in the assay was 1%. The assays were carried out at 25° C. in the PBS buffer (pH 7.4) with 0.05% Tween-20 and 0.1% BSA. Recombinant human PD-L1 protein (19-238) with a His-tag at the C-terminus was purchased from AcroBiosystems (PD1-H5229). Recombinant human PD-1 protein (25-167) with Fc tag at the C-terminus was also purchased from AcroBiosystems (PD1-H5257). PD-L1 and PD-1 proteins were diluted in the assay buffer and 10 μL was added to the plate well. Plates were centrifuged and proteins were preincubated with inhibitors for 40 minutes. The incubation was followed by the addition of 10 μL of HTRF detection buffer supplemented with Europium cryptate-labeled anti-human IgG (PerkinElmer-AD0212) specific for Fc and anti-His antibody conjugated to SureLight®-Allophycocyanin (APC, PerkinElmer-AD0059H). After centrifugation, the plate was incubated at 25° C. for 60 min. before reading on a PHERAstar FS plate reader (665 nm/620 nm ratio). Final concentrations in the assay were—3 nM PD1, 10 nM PD-L1, 1 nM europium anti-human IgG and 20 nM anti-His-Allophycocyanin. IC50 determination was performed by fitting the curve of percent control activity versus the log of the inhibitor concentration using the GraphPad Prism 5.0 software.
(In general: TR-FRET usually uses a lanthanide donor and a delayed reading to cut background.)

pIC50: −log10 of the molar value.

T1 sequence (Q9NZQ7 19-238): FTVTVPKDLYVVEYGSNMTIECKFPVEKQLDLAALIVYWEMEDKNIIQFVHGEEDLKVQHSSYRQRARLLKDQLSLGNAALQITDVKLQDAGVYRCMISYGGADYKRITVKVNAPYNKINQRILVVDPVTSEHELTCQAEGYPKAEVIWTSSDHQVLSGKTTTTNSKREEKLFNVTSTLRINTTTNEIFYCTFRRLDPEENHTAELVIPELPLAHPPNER

The pIC50 is the negative decadic logarithm of the IC50, by convention in mol/L. For the compound `COc1cccc(-c2cccc(Nc3nccn4c(CNCCO)cnc34)c2C)c1F` [Example 9, 2-(((8-((2′-fluoro-3′-methoxy-2-methyl-[1,1′-biphenyl]-3-yl)amino)imidazo[1,2-a]pyrazin-3-yl)methyl)amino)ethan-1-ol], the pIC50 was 7.00 to 8.00.

Regarding `NCc1ccc(-c2cccc(-c3ccccc3)c2Cl)cn1` [Example 6, (5-(2-chlorobiphenyl-3-yl)pyridin-2-yl)methanamine], the pIC50 is 7.00 to 8.00.

Consider `OCC1(CNC2CCN(c3cccc(NCc4ccccc4)c3Cl)CC2)CCC1` [Example 24, (1-((1-(3-(benzylamino)-2-chlorophenyl)piperidin-4-ylamino)methyl)cyclobutyl)methanol], for which the pIC50 is 6.00 to 7.00.

On to `Cc1c(-c2ccccc2)cccc1N1CCC[C@@H](N)C1` [Example 26, (R)-1-(2-methylbiphenyl-3-yl)piperidin-3-amine], for which the pIC50 was 6.00 to 7.00.

With `Cc1c(-c2ccccc2)cccc1-c1cnc2c(c1)CNCC2` [Example 20, 3-(2-methylbiphenyl-3-yl)-5,6,7,8-tetrahydro-1,6-naphthyridine], the pIC50 is 6.00 to 7.00.

As to `COc1cccc(-c2cccc(Nc3ncccc3C(=O)NCCNCCO)c2C)c1F` [Example 39, 2-(2′-fluoro-3′-methoxy-2-methylbiphenyl-3-ylamino)-N-(2-(2-hydroxyethylamino)ethyl)nicotinamide], the pIC50 was 6.00 to 7.00.

For `Cc1c(-c2ccccc2)cccc1-c1cnn(C[C@@H]2CCCN2)c1` [Example 2, 4-(2-methylbiphenyl-3-yl)-1-[(2S)-pyrrolidin-2-ylmethyl]-1H-pyrazole], the pIC50 is 7.00 to 8.00.

As for `CCN(C)CC(=O)N1Cc2nc(-c3cccc(-c4cccc(N5CCn6cncc6C5)c4C)c3C)sc2C1` [Example 38, 1-(2-(3′-(5,6-dihydroimidazo[1,5-a]pyrazin-7(8H)-yl)-2,2′-dimethylbiphenyl-3-yl)-4H-pyrrolo[3,4-d]thiazol-5(6H)-yl)-2-(ethyl(methyl)amino)ethanone], the negative-log IC50 (pIC50) is 7.00 to 8.00.

Regarding `Cc1c(NC(=O)c2cccn3c(CN4CCCC[C@H]4C(=O)O)cnc23)cccc1-c1ccccc1` [Example 11, (S)-1-((8-(2-methylbiphenyl-3-ylcarbamoyl)imidazo[1,2-a]pyridin-3-yl)methyl)piperidine-2-carboxylic acid], the pIC50 is 6.00 to 7.00.

On to `Cc1c(-c2ccccc2)cccc1N1CCC2(CCCCN2)CC1` [Example 31, 9-(2-methylbiphenyl-3-yl)-1,9-diazaspiro[5.5]undecane], for which the pIC50 was 6.00 to 7.00.

With `Cc1c(Nc2ccc3c(c2)CCNC3)cccc1-c1ccccc1` [Example 15, N-(2-methylbiphenyl-3-yl)-1,2,3,4-tetrahydroisoquinolin-6-amine], the pIC50 is 6.00 to 7.00.

In the case of `OCC1(CNC2CCN(c3cccc(Nc4ccccc4)c3Cl)CC2)CCC1` [Example 23, (1-((1-(2-chloro-3-(phenylamino)phenyl)piperidin-4-ylamino)methyl)cyclobutyl)methanol], the pIC50 is 5.70 to 6.00.

As for `Cc1c(-c2ccccc2)cccc1N1CCC2(CCCC(=O)N2)CC1` [Example 30, 9-(2-methylbiphenyl-3-yl)-1,9-diazaspiro[5.5]undecan-2-one], the negative-log IC50 (pIC50) is 6.00 to 7.00.

Turning to `Cc1c(NCC2CCCNC2)cccc1-c1ccccc1` (stereo not drawn) [Example 28, 2-methyl-N-(piperidin-3-ylmethyl)biphenyl-3-amine], the negative logarithm of the IC50 (pIC50) is 5.70 to 6.00.

`Cc1c(C2=CCC(N3CCCC3)CC2)cccc1-c1ccccc1` (stereo not drawn) [Example 32, 1-(4-(2-methylbiphenyl-3-yl)cyclohex-3-enyl)pyrrolidine]: the pIC50 is 6.00 to 7.00.

In the case of `N#Cc1c(-c2ccccc2)csc1Nc1nccc2cc(CNCCO)cnc12` [Example 34, 2-[(3-{[(2-hydroxyethyl)amino]methyl}-1,7-naphthyridin-8-yl)amino]-4-phenylthiophene-3-carbonitrile], the negative logarithm of the IC50 (pIC50) was 6.00 to 7.00.

With `Cc1c(-c2ccccc2)cccc1N1Cc2ccc(CNCCO)cc2C1` [Example 19, 2-((2-(2-methylbiphenyl-3-yl)isoindolin-5-yl)methylamino)ethanol], the pIC50 is 6.00 to 7.00.

On to `Cc1c(Nc2nsc3nccnc23)cccc1-c1ccccc1` [Example 25, N-(2-methylbiphenyl-3-yl)isothiazolo[4,5-b]pyrazin-3-amine], for which the negative-log IC50 (pIC50) was 6.00 to 7.00.

For the compound `Cc1c(-c2nc3c(s2)CN(C(=O)CN(C)C)C3)cccc1-c1cccc(-c2nc3c(s2)CN(C(=O)CN2CC[C@@H](O)C2)C3)c1C` [Example 35, (R)-2-(dimethylamino)-1-(2-(3′-(5-(2-(3-hydroxypyrrolidin-1-yl)acetyl)-5,6-dihydro-4H-pyrrolo[3,4-d]thiazol-2-yl)-2,2′-dimethylbiphenyl-3-yl)-4H-pyrrolo[3,4-d]thiazol-5(6H)-yl)ethanone], the negative-log IC50 (pIC50) was ≥ 8.00.

For the compound `O=C(Nc1ccc2cnc(-c3ccccc3)cc2c1Cl)c1ccc(CNCCO)cn1` [Example 12, N-(5-chloro-3-phenylisoquinolin-6-yl)-5-((2-hydroxyethylamino)methyl) picolinamide], the negative logarithm of the IC50 (pIC50) was 6.00 to 7.00.

On to `CCN(C)CC(=O)N1Cc2nc(-c3cccc(-c4cccc(N5CCC6NCCC6C5)c4C)c3C)sc2C1` (stereo not drawn) [Example 37, 1-(2-(2,2′-dimethyl-3′-(tetrahydro-1H-pyrrolo[3,2-c]pyridin-5(6H,7H,7aH)-yl)biphenyl-3-yl)-4H-pyrrolo[3,4-d]thiazol-5(6H)-yl)-2-(ethyl(methyl)amino)ethanone], for which the pIC50 was 6.00 to 7.00.

With `Cc1c(-c2ccccc2)cccc1-c1ccc2c(c1)CCC(CN(C)C)O2` (stereo not drawn) [Example 16, N,N-dimethyl-1-(6-(2-methylbiphenyl-3-yl)chroman-2-yl)methanamine], the negative-log IC50 (pIC50) was 6.00 to 7.00.

As for `OCCNCc1ccc(CN2CCc3c(-c4ccccc4)cccc32)c(Cl)c1` [Example 40, 2-({3-chloro-4-[(4-phenyl-2,3-dihydro-1H-indol-1-yl)methyl]benzyl}amino)ethanol], the pIC50 was 6.00 to 7.00.

On to `Cc1c(-c2ccccc2)cccc1-c1ccc2c(c1)CNC2` [Example 5, 5-(2-methylbiphenyl-3-yl)isoindoline], for which the pIC50 was 7.00 to 8.00.

Take `Cc1c(-c2ccccc2)cccc1-c1cnc2c(c1)CNC2` [Example 17, 3-(2-methylbiphenyl-3-yl)-6,7-dihydro-5H-pyrrolo[3,4-b]pyridine]: the negative-log IC50 (pIC50) is 6.00 to 7.00.

For the compound `Cc1c(-c2ccccc2)cccc1-c1ccc(CNCCO)cc1` [Example 7, 2-{[(2′-methyl-1,1′:3′,1″-terphenyl-4-yl)methyl]amino}ethanol], the pIC50 was 7.00 to 8.00.

As for `Cc1c(/C=C/c2ccc(CN3CCCC[C@@H]3C(=O)O)cn2)cccc1-c1ccccc1` [Example 8, (R,E)-1-((6-(2-(2-methyl-[1,1′-biphenyl]-3-yl)vinyl)pyridin-3-yl)methyl)piperidine-2-carboxylic acid], the negative logarithm of the IC50 (pIC50) was 7.00 to 8.00.

Regarding `CCN(C)CC(=O)N1Cc2nc(-c3cccc(-c4cccc(C#CC5CCNCC5)c4C)c3C)sc2C1` [Example 36, 1-(2-(2,2′-dimethyl-3′-(piperidin-4-ylethynyl)biphenyl-3-yl)-4H-pyrrolo[3,4-d]thiazol-5(6H)-yl)-2-(ethyl(methyl)amino)ethanone], the pIC50 was ≥ 8.00.

Take `Cc1cc(CN2CCCC[C@H]2C(=O)O)ccc1OC1CCc2c(-c3ccccc3)cccc21` (stereo partly drawn) [Example 10, (2S)-1-(3-methyl-4-(4-phenyl-2,3-dihydro-1H-inden-1-yloxy)benzyl)piperidine-2-carboxylic acid]: the pIC50 was 6.00 to 7.00.

With `COc1cccc(-c2cccc(Nc3nccc(CNCCO)c3F)c2Cl)c1F` [Example 3, 2-((2-(2-chloro-2′-fluoro-3′-methoxybiphenyl-3-ylamino)-3-fluoropyridin-4-yl)methylamino)ethanol], the negative-log IC50 (pIC50) is ≥ 8.00.

Turning to `Cc1c(-c2ccccc2)ccnc1-c1ccc(CN)cc1` [Example 21, (4-(3-methyl-4-phenylpyridin-2-yl)phenyl)methanamine], the pIC50 is 6.00 to 7.00.

With `Cc1c(-c2ccccc2)cccc1N1CC[C@H](CN)C1` [Example 29, (R)-(1-(2-methylbiphenyl-3-yl)pyrrolidin-3-yl)methanamine], the pIC50 was 5.70 to 6.00.

In the case of `Cc1c(-c2ccccc2)cccc1-c1ccc2nc(CN3CCCC[C@H]3C(=O)O)cc(C)c2c1` [Example 4, (S)-1-((4-methyl-6-(2-methylbiphenyl-3-yl)quinolin-2-yl)methyl)piperidine-2-carboxylic acid], the negative logarithm of the IC50 (pIC50) is 7.00 to 8.00.

For `Cc1c(-c2ccccc2)cccc1N1CCc2cc(CNCCO)ccc2C1` [Example 14, 2-((2-(2-methylbiphenyl-3-yl)-1,2,3,4-tetrahydroisoquinolin-6-yl)methylamino)ethanol], the pIC50 was 6.00 to 7.00.

Consider `Cc1c(-c2ccccc2)cccc1-c1ccc2c(c1)CCNC2` [Example 13, 6-(2-methylbiphenyl-3-yl)-1,2,3,4-tetrahydroisoquinoline], for which the pIC50 is 7.00 to 8.00.

In the case of `Cc1c(Nc2ccc3c(c2)CCN(C(CO)CO)C3)cccc1-c1ccccc1` [Example 18, 2-(6-(2-methylbiphenyl-3-ylamino)-3,4-dihydroisoquinolin-2(1H)-yl)propane-1,3-diol], the pIC50 was 6.00 to 7.00.
